# PubChem BioAssay (NCI)
#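 Each compound was tested at five concentrations against cells in 96-well plates for 48 hours. TGI denotes the concentration required for complete inhibition of growth.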
# What was measured:
# Assay in all cases: DTP human tumour cell line panel, 48 h
# [1] = test system: DU-145 prostate
# [2] = test system: IGROV1 ovarian
# [3] = test system: OVCAR-5 ovarian
# [4] = test system: NCI/ADR-RES ovarian
# [5] = test system: NCI-H226 lung
# [6] = test system: NCI-H522 lung
# [7] = test system: HCT-116 colon
# [8] = test system: UACC-257 melanoma
# [9] = test system: EKVX NSCLC
# [10] = test system: MALME-3M melanoma
# [11] = test system: UACC-62 melanoma
# [12] = test system: U251 CNS
# [13] = test system: SF-268 CNS
# [14] = test system: SF-295 CNS
# [15] = test system: SF-539 CNS
# [16] = test system: K-562 leukemia
# [17] = test system: TK-10 renal
# [18] = test system: NCI-H23 lung
# [19] = test system: PC-3 prostate
# [20] = test system: OVCAR-4 ovarian
# [21] = test system: MDA-N
# [22] = test system: T-47D breast
# [23] = test system: SNB-19 CNS
# [24] = test system: OVCAR-8 ovarian
# [25] = test system: RXF 393 renal
# [26] = test system: SN12C renal
# [27] = test system: MDA-MB-231 breast
# [28] = test system: SR leukemia
# [29] = test system: MDA-MB-435
# [30] = test system: HCT-15 colon
# [31] = test system: HS 578T breast
# [32] = test system: ACHN renal
# [33] = test system: UO-31 renal
# [34] = test system: SW-620 colon
# [35] = test system: BT-549 breast
# [36] = test system: HOP-62 NSCLC
# [37] = test system: COLO 205 colon
# [38] = test system: CCRF-CEM leukemia
# [39] = test system: SK-MEL-2 melanoma
# [40] = test system: HT29 colon
# [41] = test system: A549 NSCLC
# [42] = test system: MOLT-4 leukemia
# [43] = test system: SK-MEL-5 melanoma
# [44] = test system: NCI-H460 lung
# [45] = test system: CAKI-1 renal
# [46] = test system: OVCAR-3 ovarian
# [47] = test system: MCF7 breast
# [48] = test system: RPMI-8226 leukemia
# [49] = test system: LOX IMVI melanoma
# [50] = test system: A498 renal
# [51] = test system: HOP-92 NSCLC
# [52] = test system: KM12 colon
# [53] = test system: M14 melanoma
# [54] = test system: SNB-75 CNS
# [55] = test system: SK-MEL-28 melanoma
# [56] = test system: 786-0 renal
# [57] = test system: HL-60(TB) leukemia
# [58] = test system: SK-OV-3 ovarian
# [59] = test system: HCC-2998 colon
structure (smiles),measurement,setting,value
CSc1ncnc2c1ncn2CC(=O)C1CCC2C3CCC4=CC(=O)CCC4(C)C3CCC12C (stereo not given),TGI,[1],> 96.7 µM
same,TGI,[2],> 100 µM
same,TGI,[3],> 100 µM
same,TGI,[4],7.57 µM
same,TGI,[5],29.8 µM
same,TGI,[6],24.5 µM
same,TGI,[7],59.2 µM
same,TGI,[8],6.09 µM
same,TGI,[9],68.3 µM
same,TGI,[10],31.7 µM
same,TGI,[11],14 µM
same,TGI,[12],42.4 µM
same,TGI,[13],> 100 µM
same,TGI,[14],23.7 µM
same,TGI,[15],44.7 µM
same,TGI,[16],> 71.8 µM
same,TGI,[17],30.1 µM
same,TGI,[18],35.2 µM
same,TGI,[19],9.71 µM
same,TGI,[20],21.3 µM
same,TGI,[21],12.4 µM
same,TGI,[22],5.63 µM
same,TGI,[23],> 100 µM
same,TGI,[24],> 40.7 µM
same,TGI,[25],> 100 µM
same,TGI,[26],> 93.8 µM
same,TGI,[27],27.7 µM
same,TGI,[28],5.56 µM
same,TGI,[29],10 µM
same,TGI,[30],> 77.1 µM
same,TGI,[31],> 100 µM
same,TGI,[32],23.8 µM
same,TGI,[33],2.52 µM
same,TGI,[34],> 100 µM
same,TGI,[35],9.89 µM
same,TGI,[36],> 30.1 µM
same,TGI,[37],14.4 µM
same,TGI,[38],2.16 µM
same,TGI,[39],11.6 µM
same,TGI,[40],> 100 µM
same,TGI,[41],> 64.7 µM
same,TGI,[42],4.93 µM
same,TGI,[43],5.15 µM
same,TGI,[44],18.9 µM
same,TGI,[45],> 70.2 µM
same,TGI,[46],25.8 µM
same,TGI,[47],14.9 µM
same,TGI,[48],5.21 µM
same,TGI,[49],19.4 µM
same,TGI,[50],38.4 µM
same,TGI,[51],> 88.3 µM
same,TGI,[52],9.88 µM
same,TGI,[53],8.88 µM
same,TGI,[54],27.9 µM
same,TGI,[55],28.2 µM
same,TGI,[56],> 100 µM
same,TGI,[57],0.926 µM
same,TGI,[58],> 100 µM
COc1ccc(-c2c(-c3ccccc3)c(C)c3ccccn23)cc1,TGI,[1],> 100 µM
same,TGI,[2],> 100 µM
same,TGI,[3],> 100 µM
same,TGI,[4],> 100 µM
same,TGI,[5],> 100 µM
same,TGI,[6],> 100 µM
same,TGI,[7],> 100 µM
same,TGI,[8],> 100 µM
same,TGI,[9],> 100 µM
same,TGI,[10],> 100 µM
same,TGI,[11],> 100 µM
same,TGI,[12],> 100 µM
same,TGI,[14],> 100 µM
same,TGI,[15],> 100 µM
same,TGI,[16],> 100 µM
same,TGI,[17],> 100 µM
same,TGI,[18],> 100 µM
same,TGI,[19],> 100 µM
same,TGI,[20],> 100 µM
same,TGI,[21],> 100 µM
same,TGI,[22],> 100 µM
same,TGI,[23],> 100 µM
same,TGI,[24],> 100 µM
same,TGI,[26],> 100 µM
same,TGI,[27],> 100 µM
same,TGI,[28],> 100 µM
same,TGI,[29],> 100 µM
same,TGI,[30],> 100 µM
same,TGI,[31],> 100 µM
same,TGI,[32],> 100 µM
same,TGI,[33],> 100 µM
same,TGI,[34],> 100 µM
same,TGI,[35],> 100 µM
same,TGI,[36],> 100 µM
same,TGI,[37],> 100 µM
same,TGI,[38],> 100 µM
same,TGI,[39],> 100 µM
same,TGI,[40],> 100 µM
same,TGI,[41],> 100 µM
same,TGI,[42],> 100 µM
same,TGI,[43],> 100 µM
same,TGI,[44],> 100 µM
same,TGI,[59],> 100 µM
same,TGI,[45],> 100 µM
same,TGI,[46],> 100 µM
same,TGI,[47],> 100 µM
same,TGI,[48],> 100 µM
same,TGI,[49],> 100 µM
same,TGI,[50],> 100 µM
same,TGI,[51],> 100 µM
same,TGI,[52],> 100 µM
same,TGI,[53],> 100 µM
same,TGI,[54],> 100 µM
same,TGI,[55],> 100 µM
same,TGI,[56],> 100 µM
same,TGI,[57],> 100 µM
same,TGI,[58],> 100 µM
